Experimental data published in patent US8519003B2, “Phenoxyphenylamidines as fungicides” (priority 2007, dated 2013).

Columns and labels:
[1] = logP determination (acidic / HCOOH and neutral); conditions: for chromatographic logP: acidic, HCOOH (formic acid)
Podosphaera leucotricha = assay: Podosphaera test (apple)/protective; format: in vivo; conditions: protective, active compound concentration 100 ppm, evaluation 10 days after inoculation
Protocol: (§1) Podosphaera Test (Apple)/Protective [table] To produce a suitable preparation of active compound, 1 part by weight of N-ethyl-N-methyl-N′-[4-phenoxy-2,5-xylyl]formamidine (according to formula (1)) is mixed with the stated amounts of solvent and emulsifier, and the concentrate is diluted with water to the desired concentration. To test for protective activity, young plants are sprayed with the active compound preparation at the stated application rate. After the spray coating has dried on, the plants are inoculated with an aqueous spore suspension of the apple mildew pathogen Podosphaera leucotricha. The plants are then placed in a greenhouse at about 23° C. and a relative atmospheric humidity of about 70%. Evaluation is carried out 10 days after the inoculation. 0% means an efficacy which corresponds to that of the control, whereas an efficacy of 100% means that no infection is observed.

Sphaerotheca fuliginea = assay: Sphaerotheca test (cucumber)/protective; format: in vivo; conditions: protective, active compound concentration 100 ppm, evaluation 7 days after inoculation
Protocol: as §1, with “Sphaerotheca Test (Cucumber)/Protective” for “Podosphaera Test (Apple)/Protective”, “Sphaerotheca Test (Cucumber)/Protective [table] To” for “Podosphaera Test (Apple)/Protective [table] To”, “suspension of Sphaerotheca fuliginea. The plants” for “suspension of the apple mildew pathogen Podosphaera leucotricha. The plants”, “of about 90%. Evaluation is” for “of about 70%. Evaluation is”, “carried out 7 days after” for “carried out 10 days after”

Uromyces appendiculatus = assay: Uromyces test (bean)/protective; format: in vivo; conditions: protective, active compound concentration 10 ppm, evaluation 10 days after inoculation
Protocol: as §1, with “Uromyces” for “Podosphaera”, “(Bean)/Protective” for “(Apple)/Protective”, “bean rust” for “apple mildew”, “Uromyces appendiculatus and then remain in an incubation cabin at about 20° C. and 100% relative atmospheric humidity for 1 day.” for “Podosphaera leucotricha.”, “21°” for “23°”, “90%.” for “70%.”

[2] = test system: Erysiphe graminis f. sp. hordei; assay: Erysiphe test (barley)/protective; format: in vivo; conditions: protective, active compound concentration 500 ppm, evaluation 7 days after inoculation
Protocol: Erysiphe Test (Barley)/Protective [table] To produce a suitable preparation of active compound, 1 part by weight of N-ethyl-N-methyl-N′-[4-phenoxy-2,5-xylyl]formamidine (according to formula (1)) is mixed with the stated amounts of solvent and emulsifier, and the concentrate is diluted with water to the desired concentration. To test for protective activity, young cereal plants are sprayed with the active compound preparation at the stated application rate. 1 day after the treatment, the plants are inoculated with spores of Erysiphe graminis f. sp. hordei. The plants are then placed in a greenhouse at 70% relative atmospheric humidity and a temperature of 18° C. Evaluation is carried out 7 days after the inoculation. 0% means an efficacy which corresponds to that of the control, whereas an efficacy of 100% means that no infection is observed.

SMILES | chromatographic logP [1] | efficacy (Podosphaera leucotricha) [%] | efficacy (Sphaerotheca fuliginea) [%] | efficacy (Uromyces appendiculatus) [%] | efficacy [2] [%] | logP [1]
Cc1cc(Oc2ccccc2)c(C)cc1N [4-phenoxy-2,5-xylidine] | 1.92 | – | – | – | – | –
CCN(C)C=Nc1cc(C)c(Oc2ccccc2)cc1C [(1), N-ethyl-N-methyl-N′-[4-phenoxy-2,5-xylyl]formamidine] | 1.87 | ≥ 70 | ≥ 70 | ≥ 70 | ≥ 70 | 4.67
